The target of test [1] is T1, human recombinant adrenergic α1D receptor (Homo sapiens, UniProt P25100).
T1 construct: expressed in transfected cells; host or cells: HEK-293 cells
T1 sequence (P25100 1-572): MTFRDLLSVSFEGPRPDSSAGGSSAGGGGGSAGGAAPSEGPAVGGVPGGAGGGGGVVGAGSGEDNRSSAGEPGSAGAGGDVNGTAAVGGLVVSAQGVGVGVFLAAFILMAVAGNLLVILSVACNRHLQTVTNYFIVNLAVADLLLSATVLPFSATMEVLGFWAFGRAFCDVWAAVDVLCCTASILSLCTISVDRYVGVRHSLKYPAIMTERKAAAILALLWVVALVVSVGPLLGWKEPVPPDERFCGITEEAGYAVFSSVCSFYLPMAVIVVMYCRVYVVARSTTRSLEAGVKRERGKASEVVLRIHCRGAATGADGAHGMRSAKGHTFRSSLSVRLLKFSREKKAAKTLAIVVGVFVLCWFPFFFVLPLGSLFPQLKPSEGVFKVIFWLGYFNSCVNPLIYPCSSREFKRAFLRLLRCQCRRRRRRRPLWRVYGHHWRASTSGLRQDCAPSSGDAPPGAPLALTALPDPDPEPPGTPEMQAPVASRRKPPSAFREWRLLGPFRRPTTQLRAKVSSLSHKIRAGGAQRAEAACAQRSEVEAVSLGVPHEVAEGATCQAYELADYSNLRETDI
The experiment in a line: Adrenergic α1D radioligand binding ([3H]Prozosin). The conditions noted are these: 1 μM; read-out: Adrenergic α1D, inhibition of ligand binding (1 μM). On the procedure: To evaluate in radioligand binding assays the activity of compounds of the invention, human recombinant adrenergic α1D receptor expressed in human embryonic kidney (HEK-293) cells (Kenny, B. A. et al. Br. J. Pharmacol. 115(6):981, 1995) in a 50 mM Tris-HCl buffer, pH 7.4, was used. Compounds of invention were incubated with 0.6 nM [^3H]Prozosin for 60 minutes at 25° C. Non-specific binding was estimated in the presence of 10 μM phentolamine. Receptor proteins were filtered and washed, the filters were then counted to determine [^3H]Prozosin specifically bound. Compounds were screened at 1 μM or lower, using 1% DMSO as vehicle. Biochemical assay results are presented as the percent inhibition of specific binding in Table 3.

In test [2] the target is T2, human recombinant adrenergic α2B receptor (Homo sapiens, UniProt P18089).
T2 construct: expressed in transfected cells; host or cells: CHO-K1 cells
T2 sequence (P18089 1-450): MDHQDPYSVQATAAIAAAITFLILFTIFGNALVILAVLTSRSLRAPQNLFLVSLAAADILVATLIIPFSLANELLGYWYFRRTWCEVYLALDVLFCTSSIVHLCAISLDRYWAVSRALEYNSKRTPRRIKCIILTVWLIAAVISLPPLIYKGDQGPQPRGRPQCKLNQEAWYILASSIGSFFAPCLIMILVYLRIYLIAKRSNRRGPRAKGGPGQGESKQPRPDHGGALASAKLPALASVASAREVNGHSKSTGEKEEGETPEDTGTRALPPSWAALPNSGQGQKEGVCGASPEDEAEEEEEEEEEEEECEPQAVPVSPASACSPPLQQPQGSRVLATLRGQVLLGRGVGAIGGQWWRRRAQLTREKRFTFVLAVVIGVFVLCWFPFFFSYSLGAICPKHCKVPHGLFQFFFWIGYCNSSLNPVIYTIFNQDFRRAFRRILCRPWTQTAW
Put plainly: Adrenergic α2B radioligand binding ([3H]Rauwolscine). The conditions noted are these: 1 μM; read-out: Adrenergic α2B, inhibition of ligand binding (1 μM). On the procedure:
To evaluate in radioligand binding assays the activity of compounds of the invention, human recombinant adrenergic α2B receptor expressed in Chinese hamster ovary (CHO-K1) cells (Uhlen S et al. Eur J. Pharmacol. 343(1):93, 1998) in a modified Tris-HCl buffer (50 mM Tris-HCl, pH 7.4, 12.5 mM MgCl2, 1 mM EDTA, 0.2% BSA) was used. Compounds of the invention were incubated with 2.5 nM [^3H]Rauwolscine for 60 minutes at 25° C. Non-specific binding was estimated in the presence of 10 μM Prozosin. Receptor proteins were filtered and washed, the filters were then counted to determine [^3H]Rauwolscine specifically bound. Compounds were screened at 1 μM or lower, using 1% DMSO as vehicle. Biochemical assay results are presented as the percent inhibition of specific binding in Table 3.

Test [3] addresses T3, human recombinant dopamine D2L receptor (Homo sapiens, UniProt P14416).
T3 construct: expressed in transfected cells; host or cells: CHO cells
Put plainly: Dopamine D2L radioligand binding ([3H]Spiperone). The conditions noted are these: read-out: Dopamine (1 μM) D2L, inhibition of ligand binding. The essentials:
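Receptor expressed in CHO cells, in Tris-HCl pH 7.4 buffer with 150 mM NaCl. Binding used 0.16 nM [3H]spiperone for 120 min at 25 °C, with non-specific binding defined by 10 μM haloperidol and filtration counting.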

Test [4] has as its target T4, human recombinant serotonin (5-Hydroxytryptamine) 5-HT6 receptor (Homo sapiens, UniProt P50406).
T4 construct: expressed in transfected cells; host or cells: human HeLa cells
Put plainly: Serotonin 5-HT6 radioligand binding ([3H]LSD). The conditions noted are these: read-out: Serotonin 5-HT6, inhibition of ligand binding (1 μM). The essentials: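 Membranes of HeLa cells expressing human 5-HT6 were incubated with 1.5 nM [3H]LSD in Tris-HCl buffer pH 7.4 for 120 min at 37° C, with non-specific binding defined by 5 μM 5-HT.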

T3 sequence (P14416 whole entry): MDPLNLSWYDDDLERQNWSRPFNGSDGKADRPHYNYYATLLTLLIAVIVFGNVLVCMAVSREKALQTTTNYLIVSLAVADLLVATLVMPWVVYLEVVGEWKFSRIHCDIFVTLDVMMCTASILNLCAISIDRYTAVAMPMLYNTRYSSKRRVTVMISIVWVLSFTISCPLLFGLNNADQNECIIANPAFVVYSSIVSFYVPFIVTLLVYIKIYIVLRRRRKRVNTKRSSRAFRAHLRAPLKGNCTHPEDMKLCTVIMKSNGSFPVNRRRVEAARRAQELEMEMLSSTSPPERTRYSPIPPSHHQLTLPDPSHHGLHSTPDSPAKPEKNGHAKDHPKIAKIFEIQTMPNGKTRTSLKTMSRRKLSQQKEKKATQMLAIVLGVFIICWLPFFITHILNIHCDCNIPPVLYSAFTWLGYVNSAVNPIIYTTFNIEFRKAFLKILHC
T4 sequence (P50406 whole entry): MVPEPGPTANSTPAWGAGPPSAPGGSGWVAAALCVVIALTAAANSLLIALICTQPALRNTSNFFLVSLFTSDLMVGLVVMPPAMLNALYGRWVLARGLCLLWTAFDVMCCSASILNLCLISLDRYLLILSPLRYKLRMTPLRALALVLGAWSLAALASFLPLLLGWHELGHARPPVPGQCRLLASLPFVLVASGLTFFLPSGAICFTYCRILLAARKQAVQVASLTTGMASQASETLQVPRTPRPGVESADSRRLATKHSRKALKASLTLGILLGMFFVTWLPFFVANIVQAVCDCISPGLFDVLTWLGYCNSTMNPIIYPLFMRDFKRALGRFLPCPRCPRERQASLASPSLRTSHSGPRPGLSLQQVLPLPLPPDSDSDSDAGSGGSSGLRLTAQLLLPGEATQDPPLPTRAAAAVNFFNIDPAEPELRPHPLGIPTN

For the molecule `Cc1cncc(CCn2c3c(c4cc(Cl)ccc42)C2CCC(C3)N2C)c1` (centres unmarked) [Compound 89], the inhibition at 1 µM amounted to 44% in test [1], 76% in test [2], 9% in test [3] and 10% in test [4].
Consider `Cc1cncc(CCn2c3c(c4cc(C)ccc42)C2CCC(C3)N2C)c1` (centres unmarked) [Compound 90], for which the inhibition at 1 µM in test [1] is 40%; in test [2] it was 75%; in test [3] it was -4%; in test [4], 6%.
In the same order, the values of `Cc1ccc2c(c1)c1c(n2CC(O)c2ccc(C)nc2)CC2CCC1N2C` (centres unmarked) [Compound 91] are 24%, 67%, -5% and -5%.
`Cc1ccc(CCn2c3c(c4ccccc42)C2CCC(C3)N2C)cn1` (centres unmarked) [Compound 92]: the inhibition at 1 µM in test [1] turned out to be 8%; in test [2], 34%; in test [3], 0%; in test [4], 3%.
Consider `Cc1ccc2c(c1)c1c(n2CC(=O)N2CCCCC2)CC2CCC1N2C` (centres unmarked) [Compound 93], for which the inhibition at 1 µM is -18% in test [1], -6% in test [2], -19% in test [3] and -4% in test [4].
In the same order, the values of `CN1[C@@H]2CC[C@H]1c1c(n(CCc3ccc(F)cc3)c3ccc(F)cc13)C2` [Compound 94, (+)-(7S,10R)-2-Fluoro-5-(4-fluorophenethyl)-11-methyl-5,6,7,8,9,10-hexahydro-7,10-iminocyclohept[b]indole] are 77%, 102%, 14% and 21%.
For `CN1[C@H]2CC[C@@H]1c1c(n(CCc3ccc(F)cc3)c3ccc(F)cc13)C2` [Compound 95, (−)-(7R,10S)-2-Fluoro-5-(4-fluorophenethyl)-11-methyl-5,6,7,8,9,10-hexahydro-7,10-iminocyclohept[b]indole], the inhibition at 1 µM in test [1] was found to be 82%; in test [2], 36%; in test [3], 50%; in test [4] it was 41%.
Taken in the same sequence, the figures for `CN1[C@@H]2CC[C@H]1c1c(n(CCc3ccc(C(F)(F)F)nc3)c3ccccc13)C2` [Compound 97] were 19%, 103%, -10% and 8%.
For the molecule `CN1[C@@H]2CC[C@H]1c1c(n(CC(C)(O)c3ccc(F)cc3)c3ccccc13)C2` (some centres unmarked) [Compound 99], the inhibition at 1 µM in test [1] was 20%; in test [2], 92%; in test [3], -6%; in test [4], -2%.
Taken in the same sequence, the figures for `CN1[C@@H]2CC[C@H]1c1c(n(CC(=O)N3CCCCC3)c3ccccc13)C2` [Compound 101] were 74%, 76%, 10% and 15%.
In the same order, the values of `Cc1ccc(CCn2c3c(c4ccccc42)[C@@H]2CC[C@H](C3)N2C)cn1` [Compound 102] are 1%, 42%, -1% and -5%.
In the case of `Cc1ccc2c(c1)c1c(n2CCC#N)CC2CCC1N2C` (centres unmarked) [Compound 103], the inhibition at 1 µM was 86% in test [1], 94% in test [2], 4% in test [3] and 7% in test [4].
In the same order, the values of `CN1C2CCC1c1c(n(CCC#N)c3ccc(Cl)cc13)C2` (centres unmarked) [Compound 107] are 47%, 57%, -5% and -3%.
Taken in the same sequence, the figures for `CN1C2CCC1c1c(n(CC(=O)c3ccccc3)c3ccc(Cl)cc13)C2` (centres unmarked) [Compound 110] were 40%, 92%, 14% and 48%.
In the same order, the values of `CN1C2CCC1c1c(n(CC(=O)c3ccc(Cl)cc3)c3ccc(Cl)cc13)C2` (centres unmarked) [Compound 111] are 40%, 96%, 6% and 38%.
As for `Cc1ccc2c(c1)c1c(n2CCc2nc(-c3ccccc3)cs2)CC2CCC1N2C` (centres unmarked) [Compound 114], the inhibition at 1 µM in test [1] was 68%; in test [2], 107%; in test [3] it was 11%; in test [4], 29%.
Taken in the same sequence, the figures for `C/C(=C\n1c2c(c3cc(C)ccc31)C1CCC(C2)N1C)c1ccc(Cl)cc1` (centres unmarked) [Compound 116] were 40%, 95%, -2% and 10%.
In the same order, the values of `C/C(=C/n1c2c(c3ccccc31)[C@@H]1CC[C@H](C2)N1C)c1ccc(F)cc1` [Compound 121] are 80%, 100%, 19% and 65%.
Taken in the same sequence, the figures for `C/C(=C\n1c2c(c3cc(Cl)ccc31)C1CCC(C2)N1C)c1ccc(F)cc1` (centres unmarked) [Compound 123] were 79%, 103%, 80% and 98%.
On to `C/C(=C\n1c2c(c3cc(C)ccc31)C1CCC(C2)N1C)c1ccc(F)cc1` (centres unmarked) [Compound 124], for which the inhibition at 1 µM was found to be 67% in test [1], 101% in test [2], 33% in test [3] and 85% in test [4].
In the same order, the values of `C/C(=C\n1c2c(c3cc(Cl)ccc31)C1CCC(C2)N1C)c1ccc(Cl)cc1` (centres unmarked) [Compound 125] are 54%, 103%, 5% and 33%.
In the same order, the values of `COc1ccc(/C(C)=C/n2c3c(c4cc(Cl)ccc42)C2CCC(C3)N2C)cc1F` (centres unmarked) [Compound 136] are 61%, 87%, 11% and 31%.
In the same order, the values of `CN1C2CCC1c1c(n(C#Cc3ccc(F)cc3)c3ccc(Cl)cc13)C2` (centres unmarked) [Compound 138] are 60%, 109%, 42% and 45%.

Broadly, the inhibition is the relative decrease from the control value, in per cent.

(Values after US8546381B2, “Bridged heterocyclic compounds and methods of use” (Medivation Technologies, Inc., priority 2008, dated 2013).)
